#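 At the GI50, growth is halved. TGI is the concentration that stops growth completely.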
# Key:
# Assay in all cases: NCI anticancer screen, dose series, 384-well format
# 786-0 renal = test system: 786-0 renal
# A498 renal = test system: A498 renal
# A549 NSCLC = test system: A549 NSCLC
# ACHN renal = test system: ACHN renal
# BT-549 breast = test system: BT-549 breast
# CAKI-1 renal = test system: CAKI-1 renal
# CCRF-CEM leukemia = test system: CCRF-CEM leukemia
# COLO 205 colon = test system: COLO 205 colon
# DU-145 prostate = test system: DU-145 prostate
# EKVX NSCLC = test system: EKVX NSCLC
# HCC-2998 colon = test system: HCC-2998 colon
# HCT-116 colon = test system: HCT-116 colon
# HCT-15 colon = test system: HCT-15 colon
# HL-60(TB) leukemia = test system: HL-60(TB) leukemia
# HOP-62 NSCLC = test system: HOP-62 NSCLC
# HOP-92 NSCLC = test system: HOP-92 NSCLC
# HS 578T breast = test system: HS 578T breast
# HT29 colon = test system: HT29 colon
# IGROV1 ovarian = test system: IGROV1 ovarian
# K-562 leukemia = test system: K-562 leukemia
# KM12 colon = test system: KM12 colon
# LOX IMVI melanoma = test system: LOX IMVI melanoma
# M14 melanoma = test system: M14 melanoma
# MALME-3M melanoma = test system: MALME-3M melanoma
# MCF7 breast = test system: MCF7 breast
# MDA-MB-231 breast = test system: MDA-MB-231 breast
# MDA-MB-435 melanoma = test system: MDA-MB-435 melanoma
# MDA-MB-468 breast = test system: MDA-MB-468 breast
# MOLT-4 leukemia = test system: MOLT-4 leukemia
# NCI-H226 lung = test system: NCI-H226 lung
# NCI-H23 lung = test system: NCI-H23 lung
# NCI-H322M lung = test system: NCI-H322M lung
# NCI-H460 NSCLC = test system: NCI-H460 NSCLC
# NCI-H522 lung = test system: NCI-H522 lung
# NCI/ADR-RES ovarian = test system: NCI/ADR-RES ovarian
# OVCAR-3 ovarian = test system: OVCAR-3 ovarian
# OVCAR-4 ovarian = test system: OVCAR-4 ovarian
# OVCAR-8 ovarian = test system: OVCAR-8 ovarian
# PC-3 prostate = test system: PC-3 prostate
# RPMI-8226 leukemia = test system: RPMI-8226 leukemia
# RXF 393 renal = test system: RXF 393 renal
# SF-268 CNS = test system: SF-268 CNS
# SF-295 CNS = test system: SF-295 CNS
# SF-539 CNS = test system: SF-539 CNS
# SK-MEL-28 melanoma = test system: SK-MEL-28 melanoma
# SK-MEL-5 melanoma = test system: SK-MEL-5 melanoma
# SK-OV-3 ovarian = test system: SK-OV-3 ovarian
# SN12C renal = test system: SN12C renal
# SNB-19 CNS = test system: SNB-19 CNS
# SNB-75 CNS = test system: SNB-75 CNS
# SR leukemia = test system: SR leukemia
# SW-620 colon = test system: SW-620 colon
# T-47D breast = test system: T-47D breast
# TK-10 renal = test system: TK-10 renal
# U251 glioblastoma = test system: U251 glioblastoma
# UACC-62 melanoma = test system: UACC-62 melanoma
# UO-31 renal = test system: UO-31 renal
compound,measurement,setting,value
Cc1ccc(NC(=O)c2cccc(C(C)(C)C#N)c2)cc1Nc1ccc2ncn(C)c(=O)c2c1,GI50,786-0 renal,4.85 µM
same,TGI,786-0 renal,> 100 µM
same,GI50,A498 renal,5.55 µM
same,TGI,A498 renal,> 100 µM
same,GI50,A549 NSCLC,3.11 µM
same,TGI,A549 NSCLC,> 100 µM
same,GI50,ACHN renal,2.22 µM
same,TGI,ACHN renal,> 100 µM
same,GI50,BT-549 breast,6.99 µM
same,TGI,BT-549 breast,> 100 µM
same,GI50,CAKI-1 renal,0.343 µM
same,TGI,CAKI-1 renal,> 100 µM
same,GI50,CCRF-CEM leukemia,2.19 µM
same,TGI,CCRF-CEM leukemia,9.99 µM
same,GI50,COLO 205 colon,0.0246 µM
same,TGI,COLO 205 colon,8.52 µM
same,GI50,DU-145 prostate,3.63 µM
same,TGI,DU-145 prostate,> 100 µM
same,GI50,EKVX NSCLC,6.79 µM
same,TGI,EKVX NSCLC,> 100 µM
same,GI50,HCC-2998 colon,0.0525 µM
same,TGI,HCC-2998 colon,1.84 µM
same,GI50,HCT-116 colon,0.136 µM
same,TGI,HCT-116 colon,13.4 µM
same,GI50,HCT-15 colon,2.91 µM
same,TGI,HCT-15 colon,> 100 µM
same,GI50,HL-60(TB) leukemia,0.0135 µM
same,TGI,HL-60(TB) leukemia,0.148 µM
same,GI50,HOP-62 NSCLC,1.8 µM
same,TGI,HOP-62 NSCLC,> 100 µM
same,GI50,HOP-92 NSCLC,0.593 µM
same,TGI,HOP-92 NSCLC,2.55 µM
same,GI50,HS 578T breast,1.92 µM
same,TGI,HS 578T breast,9.66 µM
same,GI50,HT29 colon,0.0579 µM
same,TGI,HT29 colon,> 100 µM
same,GI50,IGROV1 ovarian,0.935 µM
same,TGI,IGROV1 ovarian,7 µM
same,GI50,K-562 leukemia,0.232 µM
same,TGI,K-562 leukemia,1.06 µM
same,GI50,KM12 colon,0.803 µM
same,TGI,KM12 colon,> 100 µM
same,GI50,LOX IMVI melanoma,0.0358 µM
same,TGI,LOX IMVI melanoma,1.34 µM
same,GI50,M14 melanoma,0.0119 µM
same,TGI,M14 melanoma,0.106 µM
same,TGI,MALME-3M melanoma,0.0178 µM
same,GI50,MCF7 breast,5.97 µM
same,TGI,MCF7 breast,> 100 µM
same,GI50,MDA-MB-231 breast,0.036 µM
same,TGI,MDA-MB-231 breast,27.3 µM
same,GI50,MDA-MB-435 melanoma,0.0617 µM
same,TGI,MDA-MB-435 melanoma,> 100 µM
same,GI50,MDA-MB-468 breast,3.53 µM
same,TGI,MDA-MB-468 breast,44.1 µM
same,GI50,MOLT-4 leukemia,1.86 µM
same,TGI,MOLT-4 leukemia,6.08 µM
same,GI50,NCI-H226 lung,2.01 µM
same,TGI,NCI-H226 lung,> 100 µM
same,GI50,NCI-H23 lung,0.048 µM
same,TGI,NCI-H23 lung,1.43 µM
same,GI50,NCI-H322M lung,2.62 µM
same,TGI,NCI-H322M lung,> 100 µM
same,GI50,NCI-H460 NSCLC,1.47 µM
same,TGI,NCI-H460 NSCLC,> 100 µM
same,GI50,NCI-H522 lung,4.09 µM
same,TGI,NCI-H522 lung,> 100 µM
same,GI50,NCI/ADR-RES ovarian,3.06 µM
same,TGI,NCI/ADR-RES ovarian,14.1 µM
same,GI50,OVCAR-3 ovarian,3.22 µM
same,TGI,OVCAR-3 ovarian,> 100 µM
same,GI50,OVCAR-4 ovarian,5.43 µM
same,TGI,OVCAR-4 ovarian,> 100 µM
same,GI50,OVCAR-8 ovarian,2.85 µM
same,TGI,OVCAR-8 ovarian,> 100 µM
same,GI50,PC-3 prostate,8.34 µM
same,TGI,PC-3 prostate,> 100 µM
same,GI50,RPMI-8226 leukemia,1.1 µM
same,TGI,RPMI-8226 leukemia,3.33 µM
same,GI50,RXF 393 renal,5.05 µM
same,TGI,RXF 393 renal,> 100 µM
same,GI50,SF-268 CNS,4.8 µM
same,TGI,SF-268 CNS,> 100 µM
same,GI50,SF-295 CNS,4.63 µM
same,TGI,SF-295 CNS,> 100 µM
same,GI50,SF-539 CNS,7.1 µM
same,TGI,SF-539 CNS,> 100 µM
same,GI50,SK-MEL-28 melanoma,0.0122 µM
same,TGI,SK-MEL-28 melanoma,0.0749 µM
same,GI50,SK-MEL-5 melanoma,0.0419 µM
same,TGI,SK-MEL-5 melanoma,1.78 µM
same,GI50,SK-OV-3 ovarian,4.9 µM
same,TGI,SK-OV-3 ovarian,> 100 µM
same,GI50,SN12C renal,0.698 µM
same,TGI,SN12C renal,> 100 µM
same,GI50,SNB-19 CNS,4.82 µM
same,TGI,SNB-19 CNS,> 100 µM
same,GI50,SNB-75 CNS,7.19 µM
same,TGI,SNB-75 CNS,> 100 µM
same,GI50,SR leukemia,0.153 µM
same,TGI,SR leukemia,0.908 µM
same,GI50,SW-620 colon,0.798 µM
same,TGI,SW-620 colon,> 100 µM
same,GI50,T-47D breast,4.42 µM
same,TGI,T-47D breast,> 100 µM
same,GI50,TK-10 renal,2.92 µM
same,TGI,TK-10 renal,60.6 µM
same,GI50,U251 glioblastoma,4.36 µM
same,TGI,U251 glioblastoma,> 100 µM
same,GI50,UACC-62 melanoma,0.0105 µM
same,TGI,UACC-62 melanoma,0.13 µM
same,GI50,UO-31 renal,0.527 µM
same,TGI,UO-31 renal,5.68 µM

# Source: PubChem BioAssay (NCI)
